Bridges are numbered along the chain shown (N, C = ends). Roman numbers before positions name the chains, in order. Where no end group is shown, it is not given here.
What was measured:
[1] = system: homotrimeric form of hTNF-α; assay: MALDI-TOF MS analysis of hTNF-α oligomer dissociation; type: biochemical, human; conditions: 5 min at room temperature, linear mode
Method: To determine whether the anti-TNF-α peptide destabilized the oligomeric form of hTNF-α, we evaluated the distribution of monomeric, dimeric and trimeric hTNF-α by MS in the presence of increasing concentrations of anti-TNF-α peptide.
The anti-TNF-α peptide was incubated in a 3-fold or 10-fold molar excess with respect with hTNF-α at room temperature for 5 min. The dissociation of hTNF-α was analysed by mass spectrometry using a sinapinic acid matrix (Sigma-Aldrich) and a protein standard II (mass range ~10,000–70,000 Da, Brucker Daltonics) in an ultrafleXtreme MALDI-TOF/TOF mass spectrometer (Bruker Daltonics) in linear mode.

[2] = target: T1, hTNF-α binding to adalimumab (Homo sapiens, UniProt P01375); assay: SPR inhibition of hTNF-α binding to captured adalimumab; conditions: 25 µM peptide, 10 nM hTNF-α, adalimumab captured via Protein A on CM5 chip, read-out: inhibition of TNF-α binding to adalimumab
T1 construct: peaks around 17,300, 34,700 and 52,100 Da, corresponding to monomeric, homodimeric and homotrimeric forms of hTNF-α; purchased Prospec
Method: The anti-hTNF-α monoclonal antibody adalimumab was captured on a protein-A-coated sensor chip. 10 nM hTNF-α was injected over the immobilized antibody in the presence of different concentrations (25, 10 and 1 µM) of the tetra-branched anti-TNF-α peptide (Figure 3A).
(§1) All the experiments were performed on a Biacore T100 instrument (GE Healthcare, Milan, Italy); materials were purchased from GE Healthcare unless otherwise specified. Adalimumab was a kind gift from Galeazzi, University of Siena. Biotinylated linear and tetra-branched TNF-peptides were immobilized on a SA sensor chip. Briefly, peptides diluted in HBS-EP+ were injected for 60 s at a flow rate of 10 µL/min, obtaining 300 and 700 RUs respectively. Different concentrations of hTNF-α, from 250 nM to 2 µM in HBS-EP+, were injected for 180 s at a flow rate of 75 µL/min onto immobilized peptides. Association and dissociation kinetic rate constants (kon and koff) and the equilibrium dissociation constant Kd were calculated using BIAevaluation 3.0 software. […] Adalimumab monoclonal antibody (1 µg/mL in HBS-EP+ for 45 s at a flow rate of 10 µL/min) was immobilized on a CM5 sensor chip previously coated with Protein A (6500 RUs). Competition experiments were carried out injecting 10 nM hTNF-α for 180 s at flow rate of 30 µL/min with various concentrations (1, 10 and 25 µM) of tetra-branched TNF-peptide. […]

human TNF-α (hTNF-α) = target: T2, human TNF-α (hTNF-α) (Homo sapiens, UniProt P01375); assay: SPR binding of hTNF-α to immobilized biotinylated peptides (Biacore T100); conditions: hTNF-α 250 nM to 2 µM over immobilized peptide
T2 construct: peaks around 17,300, 34,700 and 52,100 Da, corresponding to monomeric, homodimeric and homotrimeric forms of hTNF-α; purchased Prospec
Method: hTNF-α was injected over linear and tetra-branched peptides previously immobilized on a Biacore T100 SA sensor chip. hTNF-α was flowed at concentrations ranging from 250 nM to 2 µM. To assess any non-specific binding, hTNF-α was also injected over an empty flow cell.
as §1

murine TNF-α = assay: SPR specificity: binding of murine TNF-α to immobilized peptides; conditions: data not shown
biotinylated hTNF-α = assay: Phage ELISA of selected clones; type: binding, human; conditions: streptavidin-coated 96-well plates coated with 20 nM biotinylated hTNF-α; phage-displayed peptide
Method: Random 12-mer peptide phage library Ph.D.™-12 (New England Biolabs, Ipswich, MA, USA) was incubated with biotinylated hTNF-α. 10^11 phage, diluted in PBS (137 mM NaCl, 2 mM KCl, 10 mM Na2HPO4, 2 mM KH2PO4, pH 7.4) containing 0.1% (v/v) Tween 20 (PBST) and 3% bovine albumin (BSA) and incubated with 50 nM biotinylated hTNF-α o/n at 4 °C, was added to 100 μL Dynabeads-M280 coupled with streptavidin (Invitrogen¸ Waltham, MA, USA), saturated with 5% BSA in PBST, for 15 min at room temperature. After washing 10 times with PBST, bound phages were eluted with 5 μM adalimumab for 60 min at room temperature. The amplified phages were titered and underwent two further rounds of biopanning as described above, except that the concentration of biotinylated hTNF-α was diminished (20 nM and 10 nM for the second and third rounds of panning, respectively) and washing was performed using 0.5% (v/v) Tween 20.
In alternative to the selection described above we performed the following panning using SPR technology. Biotinylated hTNF-α was immobilized to the streptavidin (SA) sensor chip surface, obtaining final 2000 Resonance Units. […] For both pannings, the binding of selected clones to hTNF-α after the last round of panning was evaluated by phage ELISA in streptavidin-coated 96-well plates coated with 20 nM biotinylated hTNF-α.

T1 sequence (P01375 77-233 limits assumed): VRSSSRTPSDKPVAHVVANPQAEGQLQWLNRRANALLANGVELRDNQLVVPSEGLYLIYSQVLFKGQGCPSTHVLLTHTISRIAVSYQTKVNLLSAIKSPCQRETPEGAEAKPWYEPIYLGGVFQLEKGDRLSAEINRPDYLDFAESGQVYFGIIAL
T2 sequence (P01375 77-233 limits assumed): as above

I: HIHDDLLRYYGWKK-NH2 / II: HIHDDLLRYYGWK / III: HIHDDLLRYYGW / IV: HIHDDLLRYYGW (amide I:13-IV:C, I:14-II:C, II:13-III:C) [tetra-branched anti-TNF-α peptide]
homo-dimeric hTNF-α peak in MS (in words) ([1]; tenfold molar excess of peptide): the homo-dimeric form also disappeared | homo-trimeric hTNF-α peak in MS (in words) ([1]; threefold molar excess of peptide): The peak corresponding to the homo-trimeric form disappeared | inhibition at 25 µM [2]: ~80%

I: HIHDDLLRYYGWKK-NH2 / II: HIHDDLLRYYGWK / III: HIHDDLLRYYGW / IV: HIHDDLLRYYGW (amide I:13-IV:C, I:14-II:C, II:13-III:C; C-terminus assumed) [tetra-branched peptide]
hTNF-α binding (in words) (human TNF-α (hTNF-α)): bound hTNF-α in a dose-dependent manner | binding for murine TNF-α (in words) (murine TNF-α): did not show any binding for murine TNF-α

HIHDDLLRYYGW
phage ELISA result for clones expressing the sequence (in words) (biotinylated hTNF-α): positive
